For series [1], the system named is cybrids bearing the m·3243A>G mutation in mt-tRNA^Leu(UUR). Description: Fluorescence confocal microscopy of Cy5-linked constructs, uptake and mitochondrial co-localization. The series is classed as cell-based, human. The note with it: 0.25 μM, 24 hours, Mitotracker Red. An excerpt:
Top row (constructs): exogenously administered constructs covalently linked to a fluorescent dye (Cy5) are localized within cells.
Middle row (Mitotracker red): mitochondria within the same cells shown in the top row are highlighted by Mitotracker red, a dye able to link specifically and exclusively to mitochondria.
The cells used for the experiments are trans-mitochondrial hybrids (hereafter named cybrids) bearing the m·3243A>G mutation in mt-tRNA^Leu(UUR), which is associated with the MELAS syndrome.
Cells were incubated for 24 hours with 0.25 μM of constructs. Half an hour before imaging, cells were stained with Mitotracker Red. Finally, fluorescence signals were detected with a laser scanning confocal microscope. PCC: Pearson's Correlation Coefficient (mean±SEM of six images).
Constructs made of compounds listed in Table 1 linked to the Cy5 fluorophore via maleimide cross-linker, were administered to sub-confluent cybrid cell cultures at 0.25 μM in glucose medium. […] The fluorescence images were analyzed with the ImageJ software (14, https://imagej.nih.gov/ij/, 1997-2018) to determine the Pearson's correlation coefficient.
The uptake and localization of Cy5-conjugated constructs in cybrids was assessed by flow cytometry, confocal microscopy, and immunoblot analysis on isolated mitochondria (FIG. 1). […]

Series [2] deals with m·3243A>G mt-tRNA^Leu(UUR) mutant cybrids. Description: Cell viability, Trypan blue dye exclusion, galactose vs glucose medium. The note with it: 5 μM, galactose medium, 24 hours. The series is classed as cell-based, human. As to the method: For viability assessment, cells were plated in either glucose or galactose medium. The reason for this is that a viability phenotype can be appreciated in cells growing on galactose, which forces cells to rely on mitochondrial respiration, but not in cells growing on glucose. After 24 hours incubation, the number of viable cells in the galactose medium was normalized to the number of viable cells in glucose at the same time point, which represents the normal growth condition. Data are compared with the value of mutant cells incubated with vehicle only. Mean±SEM of at least three independent experiments is shown.
For viability assessment, cells were plated in either glucose or galactose medium. The reason for this is that a viability phenotype can be appreciated in cells growing on galactose, which forces cells to rely on mitochondrial respiration, but not in cells growing on glucose. After 24 hours incubation the number of viable cells in galactose medium was normalized to the number of viable cells in glucose (that represents the normal growth condition) at the same time point. Data are compared with the value of mutant cells incubated with vehicle only. Means±SEM of at least two independent experiments are shown.
Previously established osteosarcoma derived (143B.TK-) cybrid cell lines from patients, which bear either the m·3243A>G mutation in mt-tRNA^Leu(UUR) or the m·8344A>G mutation in mt-tRNA^Lys, and controls were used (generous gift from Dr Valeria Tiranti and Dr Valerio Carelli).
Cybrid cells were cultured in Dulbecco's modified Eagle's medium (DMEM), supplemented with 4.5 g/l d-glucose, 10% foetal bovine serum (FBS), 2 mM I-glutamine, 50 μg/ML uridine, 100 U/mL penicillin, and […] (referred to as glucose medium) in a humidified atmosphere of 95% air and 5% CO2 at 37° C. For cell viability experiments, cells were grown either in glucose medium or in glucose-free DMEM, supplemented with 5 mM galactose, […] sodium pyruvate, and 10% FBS (referred to as galactose medium). The reason for using the latter medium is that a pathological phenotype can be appreciated in cells growing on galactose, which forces cells to rely on mitochondrial respiration, but not in cells growing on glucose.
[…] Cells were switched in glucose or galactose and after 24 hours cell viability was measured by the Trypan blue dye exclusion assay. Cells were harvested with 0.25% trypsin and 0.2% EDTA, washed, suspended in PBS in the presence of Trypan blue solution (Sigma-Aldrich) at 1:1 ratio and counted using a hemocytometer. The number of viable cells in galactose medium was expressed as a percentage of the number of cells in glucose medium.
To evaluate the effect of the compounds on viability, cybrids were grown in glucose-free medium supplemented with galactose (galactose medium), a condition that both forces cells to rely on the mt respiratory chain for ATP synthesis and causes a significant growth reduction in the presence of mutations.
To evaluate the effect of PMT and M-PMT on viability, cybrids were grown in glucose-free medium supplemented with galactose (galactose medium), a condition that both forces cells to rely on the mt respiratory chain for ATP synthesis and causes a significant growth reduction in the presence of mutations.

Series [3] can be described thus: Plasma stability: incubation in human plasma, UPLC-MS quantification. The series is classed as in vitro ADME. Particulars: for plasma stability compared with another peptide: human plasma, FIG. 4; for degradation in human plasma: no time stated. As to the method: Panel B. Time course decay of β32_33, PMT, PMT-8a and PMT-8b incubated up to 72 h with human plasma from four healthy subjects. […] The Y axis indicates the signal intensity of the four peptides. Samples of plasma were obtained from healthy volunteers and immediately used for the analysis. Either β32_33 peptide or PMT for the experiment in panel A, and β32_33 peptide, PMT, PMT-8a or PMT-8b for the experiment in panel B, was incubated in plasma at a final concentration of 0.2 mM, at 37° C., up to 3 h (A) or 72 h (B). At the indicated time points, i.e., T0 and 3 h (A) or T0, 1.5, 3, 6 and 72 h (B), aliquots of 200 μL were treated with 3 volumes of acetonitrile containing 1% formic acid and extracted by a solid phase extraction system to remove proteins and phospholipids. Samples were dried under vacuum, resuspended in 100 μL of 0.1% formic acid containing 5% acetonitrile, and analyzed with a Water Acquity H-Class UPLC system equipped with a single-quadruple mass detector with electrospray ionization source. Samples were separated onto a reverse phase C18 column by performing a gradient with two mobile phases consisting of 0.1% formic acid in water and 0.1% formic acid in acetonitrile at a flow rate of 0.5 mL/min. Quantification was performed by Selected lon Recording (SIR): at m/z=917.88, corresponding to the [M+2 H]^2+ion obtained from either β32_33 or PMT; at m/z=961.42, corresponding to the [M+H]^+ion obtained from PMT-8a; and at m/z=869.48, corresponding to the [M+H]^+ion obtained from PMT-8b.
In order to evaluate whether compounds (βp and d-βp) are stable in blood or hydrolyzed by plasma peptidases, we set up a chromatographic assay to evaluate compound concentration after incubation in human plasma.
Blood was drawn by venipuncture in vacutainer containing EDTA as an anticoagulant.
Two different samples from healthy volunteers were used. Plasma was separated by centrifugation and immediately used for the experiments. Each compound was dissolved in 500 uL plasma at a final concentration of 0.2 mM, and split into two aliquots, one of which was immediately analyzed to assess the basal compound level; the other was incubated at 37° C. for 3 hours under gentle shaking. In order to perform chromatographic analysis the samples were treated with 3 volumes of acetonitrile containing 1% formic acid, and then extracted by using the Ostro™ pass-through sample preparation system to remove proteins and phospholipids. Samples were dried under vacuum and then resuspended in 100 uL of 0.1% formic acid containing 5% acetonitrile, then directly injected onto the chromatographic column.
Chromatographic analyses were performed on a Water Acquity H-Class UPLC system (Waters, Milford, MA, USA), including a quaternary solvent manager (QSM), a sample manager with a flow through needle system (FTN), a photodiode array detector (PDA) and a single-quadruple mass detector with electrospray ionization source (ACQUITY QDa). Analyses were performed on a reverse phase C18 column (75 mm×3.2 mm i.d., 2.5 μm particle size). The mobile phase was solvent A, 0.1% formic acid in water, and solvent B, 0.1% formic acid in acetonitrile. The flow rate was 0.5 mL/min, the column temperature was set at 25° C. and the elution was performed by linearly increasing the concentration of solvent B up to 70% in 7 minutes. Mass spectrometric detection was performed in the positive electrospray ionization mode, using nitrogen as the nebulizer gas. Analyses were performed in the Total lon Current (TIC) mode with a mass range of 100-1200 m/z. The capillary voltage was 0.8 kV, cone voltage 8 V, ion source temperature 120° C. and probe temperature 600° C. Quantification of each compound was performed by Selected lon Recording (SIR) at m/z 917.88, corresponding to the […]

Series [4] deals with m·3243A>G mutant cybrids, m·8344A>G mutant cybrids and healthy control cells. Put plainly: Mitochondrial ToxGlo Assay (cyto- and mitotoxicity). Here is the method:
Images show the effect of increasing PMT concentrations on healthy and mutant cells, compared with the effect of a cytotoxic (C1) and a mitotoxic (C2) agent, evaluated using the Mitochondrial ToxGlo™ Assay.
The X and Y axis show the compounds incubated with cells and the ratio between fluorescent and luminescent signal, respectively. In this assay, fluorescence increase indicates a decrease in cell membrane integrity, and luminescence decrease indicates a decrease in cellular ATP levels. […] The horizontal black line represents fluorescence/luminescence signal ratio of untreated cells. WT: wild type; 3243: cells bearing the mutation m·3243A>G in mt-tRNA^Leu(UUR); L-8344 and H-8344: cells bearing low and high load of mutation m·8344A>G in mt-tRNA^Lys.
Cybrids were plated on a 96-well plate in normal growth conditions (i.e., glucose medium) and treated with different PMT concentrations. […] Fluorescence and luminescence were measured with a GloMax Multi+Luminometer. […]
Mitochondrial toxicity exerted by PMT was measured using the Mitochondrial ToxGlo™ Assay (Promega Italia Srl., Milano, Italy) according to the manufacturer's protocol. […] Subsequently, cells were incubated with specific reagents and fluorescence or luminescence were measured with a GloMax Multi+Luminometer (Promega Italia Srl., Milano, Italy).

“Also recorded” adds a separate entry of the source. Non-standard residues stand in square brackets, D forms with d. Residues, ends and D or L forms follow the SMILES beside them. No end group written: not given here.

Consider `CC[C@@H](C)[C@@H](NC(=O)[C@@H](CC(C)C)NC(=O)[C@@H](C)NC(=O)[C@H](NC(=O)[C@@H](CCCNC(=N)N)NC(=O)[C@H]1CCCN1C(=O)[C@@H](CO)NC(=O)[C@H](N)CC(C)C)[C@H](C)O)C(=O)O` [PMT-8b, d(L)d(S)d(P)d(R)d(T)d(A)d(L)d(I)] (H-[dL][dS][dP][dR][dT][dA][dL][dI]-OH; N-terminus and C-terminus assumed), for which the “penetration of cell membranes and co-localization with mitochondria” value in series [1] is “Penetrate Cell Membranes and Co-Localize with Mitochondria”. In series [2], the “viability of mutant cybrids vs non treated mutant cells” value is on record as “significantly improved”. Moreover, in series [3], the “plasma stability compared with another peptide” value was “even more stable than the full-length 16-residue long PMT; also recorded: slower degradation than the β32_33 peptide” and the “degradation in human plasma” value was “does not undergo degradation at all”. In addition, the remaining at 72 h, 0.2 mM in series [3] (human, human plasma from healthy volunteers, second experiment, plasma of four healthy volunteers, 72 h, read-out: peptide present after incubation in plasma) is 80%.

As to `[N-]=[N+]=[N-]` [sodium azide, reference compound], the “effect on fluorescence and luminescence (positive controls)” value in series [4] (400 μg/ml digitonin (C1) or 100 μl sodium azide (C2), three hours) is “a decrease in luminescence and has no effect on fluorescence”.

Turning to “d(K)d(K)d(S)d(F)d(L)d(S)d(P)d(R) ([dK][dK][dS][dF][dL][dS][dP][dR]) [PMT-8a, PMT fragment comprising PMT residues 1-8]”, the “penetration of cell membranes and co-localization with mitochondria” value in series [1] was “Penetrate Cell Membranes and Co-Localize with Mitochondria”. The cyto- and mito-toxicity entry in series [4] (5, 10, 20 μM (up to 20 μM), mutant and wild-type cells) is recorded as “neither cytotoxic nor mitotoxic”. Also, in series [3], the “plasma stability compared with another peptide” value is reported as “even more stable than the full-length 16-residue long PMT; also recorded: slower degradation than the β32_33 peptide” and the “degradation in human plasma” value is recorded as “does not undergo degradation at all”. In addition, the “detectable degradation in plasma” value in series [3] (second experiment, plasma of four healthy volunteers, up to 72 h) is reported as “did not undergo detectable degradation”.

The values above are taken from patent US20250171762A1, “THERAPEUTICAL PEPTIDOMIMETIC” (UNIVERSITA' DEGLI STUDI DI ROMA "LA SAPIENZA", priority 2021, published 2025).
